How the values were obtained:
[1] = Half life in rat at 0.1 mg/kg, IG at pH 7.4 measured for 24 hrs; assay type: ADME, organism-based; conditions: in vivo, po
[2] = Half life in rat at 0.1 mg/kg, IG at pH 1.2 measured for 24 hrs; assay type: ADME, organism-based; conditions: in vivo, po
[3] = Half life in mouse at 15 mg/kg, ip at pH 7.4 measured at 24 to 72 hrs; assay type: ADME, organism-based; conditions: in vivo, time 24-72 hrs
Mus musculus = assay: Anti-colitis activity against TNBS-induced C57BL/6 mouse model assessed as survival rate at 15 mg/kg, ip; assay type: functional
[4] = Half life in C57BL/6 mouse at 100 mg/kg, ip at pH 7.4 measured after 24 hrs; assay type: ADME, organism-based; conditions: in vivo

C#CC(C)(C)NC(=O)C1=C2C(=C(c3ccccc3)C1=O)c1cccc3cccc2c13
half-life [1]: 24.1 min
half-life [2]: 17.1 min

C#CCCN(C(=O)C1=C2C(=C(c3ccccc3)C1=O)c1cccc3cccc2c13)C(C)C
half-life [3]: 72 min
Activity (Mus musculus): 75%

C#CCN(C)C(=O)C1=C2C(=C(c3ccccc3)C1=O)c1cccc3cccc2c13
half-life [4]: 1.9 min

Reference: ChEMBL document CHEMBL5230147, “Click, release, and fluoresce: In-vivo generation of CO with concomitant synthesis of a fluorescent reporter” (Bioorg Med Chem, 2021)
